What was measured:
[1] = test system: C57BL/ks diabetic (db/db) mice; experiment: Plasma glucose lowering in diabetic db/db mice; format: in vivo; settings: for Change in Glucose 6 H: 125 mg/kg q.d. oral (0, 24, 48 h), 6 h after initial dose, Table 8 experiment (FIG. 5)
Procedure: (§1) Genetically altered obese diabetic mice (designated C57BL/ks diabetic or db/db) were purchased from the Jackson Laboratory (Bar Harbor, Me., USA), and served as experimental animals. Male animals between the ages of 8-9 weeks were employed in the studies described here. Animals were housed (4 mice/cage) under standard laboratory conditions at 22° C. and 50% relative humidity, and were maintained on a diet of Purina rodent chow and water ad libitum. Prior to treatment, blood was collected from the tail vein of each a nimal. Mice that had plasma glucose levels between 350 and 600 mg/dL were used. Each treatment group consisted of eight mice that were distributed so that the mean glucose levels were equivalent in each group at the start of the study. Db/db mice received, orally by gavage: the experimental compound administered at 62.5, 125, or 250 mg/kg/day (unless otherwise noted), or metformin administered at […] for 1-3 days, Test compounds were delivered in a liquid vehicle containing 0.25% (w/v) carboxymethyl-cellulose, 1% (v/v) Tween 60® (polyoxyethylene sorbitan monosterate), and up to 10% (v/v) dimethyl sulfoxide (DMSO) in a volume of 10 ml/kg. Blood was sampled from the tail vein at three hours, six, eight, twenty-four, and thirty hours post-administration (the first administration) of the particular compound in non-fasted conditions. Experiments 3-5 also sampled blood at fifty-four hours post-administration (the first administration) of the particular compound in non-fasted conditions. Blood samples were analyzed for plasma glucose levels. Individual body weights and mean food consumption (each cage) were also measured daily.
The isolated test substances were prepared as described previously (vide supra). Metformin (1,1-dimethylbiguanide), carboxymethyl cellulose and Tween 60 were purchased from Sigma Chemical Co. (St. Louis, Mo., USA; catalog #'s D-5035, C-4888, and p-1629, respectively). Plasma glucose levels were determined […] using glucose oxidase (Sigma Chemical Co.; Sigma catalog #315). Significant differences between groups (comparing compound-treated to vehicle-treated) were evaluated using analysis of variance and Fisher's post-hoc test. […]

[2] = Body weights and food consumption in diabetic db/db mice; format: in vivo
Procedure: as §1

[3] = 125 mg/kg oral, Table 10 experiment
[4] = 125 mg/kg oral, Table 8 experiment
[5] = 125 mg/kg, Table 10/11 experiment

In the case of “5-hydroxy-3-methoxy-2-(3-methyl-2-butenyl)stilbene [Compound A]”, the “mean glucose levels declined from the baseline values” ([1]; decline, 62.5 mg/kg, 30 h after initial dosing, Tables 4/6 experiment) is reported as 40.7 mg/dL, the “mean glucose levels declined from the baseline values” ([1]; decline, 125 mg/kg, 30 h after initial dosing, Tables 4/6 experiment) is reported as 69.7 mg/dL and the “mean glucose levels declined from the baseline values” ([1]; decline, 250 mg/kg (also metformin 250 mg/kg), 30 h after initial dosing, Tables 4/6 experiment) is reported as 221.4 mg/dL.

In the case of `COc1cc(/C=C/c2ccccc2)cc(O)c1CC=C(C)C` [Compound D, 3-hydroxy-5-methoxy-4-(3-methyl-2-butenyl)stilbene], the “hypoglycemic effect relative to vehicle” value [1, 3] is reported as “statistically significant reduction in plasma glucose”, the “Food Intake 0-48 h” value ([2]; 125 mg/kg, Table 11) is reported as 5.7 g/mouse and the “Body weight (mean) 0 h” value ([2]; 125 mg/kg, Table 11) is reported as 39.3 ± 0.6 g/mouse. For the same molecule, the “Body weight (mean) 48 hr” value ([2]; 125 mg/kg, Table 11) was 39.7 ± 0.7 g/mouse.

With `COc1cc(O)cc(CCc2ccccc2)c1` [Compound G, 3-hydroxy-5-methoxybibenzene] the “hypoglycemic effect relative to vehicle” value [1, 4] was “statistically significant reduction in plasma glucose”, the “Change in Glucose 6 H” value [1] was 35.0 mg/dL and the “effect on food intake or body weight” value ([2]; 125 mg/kg, Table 8 experiment) was “absence of any significantly adverse effect on food intake or body weight”. The “effect on food intake or body weight” value [2, 5] was “absence of any significantly adverse effect on food intake or body weight”.

In the case of `COc1cc(O)cc(CCc2ccccc2)c1CC=C(C)C` [Compound E], the “hypoglycemic effect relative to vehicle” value [1, 4] is reported as “statistically significant reduction in plasma glucose”, the “hypoglycemic effect relative to vehicle” value [1, 3] is reported as “statistically significant reduction in plasma glucose” and the “Change in Glucose 6 H” value [1] is reported as -2.1 mg/dL. For the same molecule, the “Food Intake 0-48 h” value ([2]; 125 mg/kg, Table 11) was 5.7 g/mouse, the “Body weight (mean) 0 h” value ([2]; 125 mg/kg, Table 11) was 39.6 ± 0.3 g/mouse and the “Body weight (mean) 48 hr” value ([2]; 125 mg/kg, Table 11) was 40.2 ± 0.4 g/mouse. For the same molecule, the “effect on food intake or body weight” value ([2]; 125 mg/kg, Table 8 experiment) was “absence of any significantly adverse effect on food intake or body weight” and the “effect on food intake or body weight” value [2, 5] was “absence of any significantly adverse effect on food intake or body weight”.

For `COc1cc(/C=C/c2ccccc2)c(C(=O)O)c(O)c1CC=C(C)C` [Compound C, 3-hydroxy-4-(3-methyl-2-butenyl)-5-methoxystilbene-2-carboxylic acid], the “hypoglycemic effect relative to vehicle” value ([1]; 250 mg/kg oral, FIG. 2 experiment) was “statistically significant reduction in plasma glucose”, the “hypoglycemic effect relative to vehicle” value ([1]; 62.5, 125, and 250 mg/kg oral, Tables 4/6 experiment) was “statistically significant reduction in plasma glucose” and the “mean glucose levels declined from the baseline value” ([1]; decline, 125 mg/kg, 54 h after initial dosing, Tables 4/6 experiment) was 60.4 mg/dL. The “mean glucose levels declined from the baseline values” ([1]; decline, 250 mg/kg (also metformin 250 mg/kg), 54 h after initial dosing, Tables 4/6 experiment) was 122.0 mg/dL, the “effect on food intake or body weight” value ([2]; 62.5 mg/kg, 125 mg/kg, and 250 mg/kg, Tables 4/6 experiment) was “absence of any significantly adverse effect on food intake or body weight” and the “effect on food intake or body weight” value ([2]; 250 mg/kg, FIG. 2 experiment) was “absence of any significantly adverse effect on food intake or body weight”. The “food intake versus normal food intake range (5-6 g/day/mouse)” value ([2]; 250 mg/kg, FIG. 2 experiment) was “less than that of the normal food intake range” and the “food intake versus normal food intake range (5-6 g/day/mouse)” value ([2]; 250 mg/kg, Tables 4/6 experiment) was “less than that of the normal food intake range”.

In the case of `COc1cc(O)cc(CCc2ccccc2)c1CCC(C)C` [Compound F], the “hypoglycemic effect relative to vehicle” value [1, 3] is reported as “statistically significant reduction in plasma glucose”, the “Food Intake 0-48 h” value ([2]; 125 mg/kg, Table 11) is reported as 5.8 g/mouse and the “Body weight (mean) 0 h” value ([2]; 125 mg/kg, Table 11) is reported as 39.3 ± 0.8 g/mouse. The “Body weight (mean) 48 hr” value ([2]; 125 mg/kg, Table 11) was 39.8 ± 0.8 g/mouse.

With `CN(C)C(=N)N=C(N)N` [Metformin, 1,1-dimethylbiguanide, reference compound] the “Food Intake 0-48 h” value ([2]; 250 mg/kg, Table 5) was 5.1 g/mouse, the “Body weight (mean) 0 h” value ([2]; 250 mg/kg, Table 5) was 37.3 ± 0.7 g/mouse and the “Body weight (mean) 48 hr” value ([2]; 250 mg/kg, Table 5) was 37.2 ± 0.6 g/mouse.

— US6410596B1 (Insmed Incorporated, priority 2000, dated 2002)
